The record followed here is ChEMBL document CHEMBL1782033, “Dimeric prenylated C6-C3 compounds from the stem bark of Illicium oligandrum” (2011).

A short description of this assay: Antiinflammatory activity in rat Polymorphonuclear leukocytes assessed as inhibition of platelet-activating factor-induced beta-glucuronidase release at 10 uM. The format is functional.
Turning to `C[C@@H]1C(=O)O[C@H]2[C@H](O)[C@@]34[C@H]5C[C@@H](C(C)(C)C)[C@]36[C@@H](OC(=O)[C@@H]6O)O[C@@]4(C(=O)O5)[C@@]12O` [GINKOLIDE B], the inhibition (commonly the drop in the measured response relative to a control, in per cent) at 10 µM came out at 83.5%.
`C=CC[C@]1(O)C(=O)C=C2O[C@H](C(C)(C)O)C[C@@]23[C@@H]2C(=O)[C@@](O)(CC=C)[C@@H](C4=C2OC(C)(C)[C@H](O)C4)[C@H]31` [ILLICIDIONE A]: the inhibition at 10 µM came out at 38.2%.
For `C=CCC1=C[C@]2(O)C[C@H](C(C)(C)O)OC2=C(CC2=C3O[C@@H](C(C)(C)O)C[C@@]3(O)C=C(CC=C)C2=O)C1=O` [ILLICIDIONE B], the inhibition at 10 µM was 18.6%.
Consider `C=CC[C@H]1C[C@]2(O)C[C@H](C(C)(C)O)OC2=C(CC2=C3O[C@@H](C(C)(C)O)C[C@@]3(O)C[C@H](CC=C)C2=O)C1=O` [ILLICIDIONE C], for which the inhibition at 10 µM was determined as 25.3%.
